“Also recorded” adds a separate entry of the source.
Experiments:
U87 human GBM cells = assay: U87 viability (Alamar Blue); assay type: cell-based; conditions: for IC50, U87 viability: U87 express low amounts of Olig2
Procedure: (§1) Culture and assay system: Ink4a/arfEGFR-VIII mouse cells and U87 human GBM cells were cultured in DMEM medium with 10% FBS. GBM4 and GBM8 patient-derived tumor neurosphere lines were cultured in stem cell medium supplemented with FGF and EGF. Primary normal human astrocytes (NHA) were cultured in astrocyte medium (Life Technologies, Grand Island N.Y.) with EGF. Cytotoxicity of the compounds was assessed by […] (MTT) reduction assay (for Ink4a/arfEGFR-VIII cells) as described earlier (Rajesh M et al., Journal of the American Chemical Society 129:11408-11420 (2007)) or by Alamar Blue assay (for all other cell types). For the MTT reduction assay, Ink4a/arfEGFR-VIII cells were grown in 96-well plates at a concentration of ˜2000 cells per well overnight and all assays were conducted in DMEM medium with 10% FBS and additives. For studies with inhibitor compounds, 10 mM stocks were serially diluted in dimethyl sulfoxide and further diluted into culture media to give appropriate concentrations while minimizing precipitation associated with serial dilutions in medium alone. Inhibitors were added to cells and left in the media for 72 hours. Cell viability for Ink4a/arfEGFR VIII cells was quantified at 540 nm after the addition of MTT (Sigma-Aldrich). Results were expressed as: […]
(§2) For GBM4, GBM8, U87, and NHA cell lines, viability was quantified by Alamar Blue Assay. In this assay, cells were treated with inhibitor compounds as described and Alamar Blue added after 72 hours. Emission values at 590 nm were measured after the addition of Alamar Blue. Dose-response curves for MTT assays and Alamar Blue Assays were plotted and IC50 values were calculated by using GraphPad Prism (GraphPad Prism Software, Inc., La Jolla, Calif.).

[1] = system: normal human astrocytes (NHA); assay: primary astrocyte viability (Alamar Blue); assay type: cell-based; conditions: for IC50, primary astrocyte viability: astrocytes express low amounts of Olig2
Procedure: as §1, §2

p21 = assay: expression of p21, direct genetic target of OLIG2 (qPCR); assay type: cell-based, human
Description: (§3) FIGS. 17A-17B. OLIG2 inhibitor affects expression of direct genetic targets of OLIG2. […] (FIG. 17A) Escalating OLIG2 inhibitor doses led to increased levels of p21.
(§4) mRNA was extracted from different cell lines with the AllPrep DNA/RNA Mini Kit (Qiagen, Inc.), followed by cDNA synthesis using the iScript cDNA Synthesis Kit (Bio-Rad, Inc). To investigate single-gene expression patterns, individual gene primers were purchased from Allele Biotechnology and Pharmaceuticals Inc. SYBR Green Real Time PCR master mixes were purchased from Roche Corporation. qPCR was performed with primers specific for OLIG2, p21, and OMG genes. Individual gene expression was normalized to expression of beta-Actin. Histograms show mean and standard error of the mean (SEM) from three separate experiments.

OMG = assay: expression of OMG, direct genetic target of OLIG2 (qPCR); assay type: cell-based, human
Description: as §3, §4

GBM4 cells = assay: GBM4 neurosphere viability (Alamar Blue); assay type: cell-based, human; conditions: grown as neurospheres, inhibitor given alone
Procedure: as §1, with “For studies with inhibitor compounds, 10 mM stocks were serially diluted in dimethyl sulfoxide and further diluted into culture media to give appropriate concentrations while minimizing precipitation associated with serial dilutions in medium alone. Inhibitors were added to cells and left in the media for 72 hours.” left out
as §2, with “In this assay, cells were treated with inhibitor compounds as described and Alamar Blue added after 72 hours.” left out

GBM8 cells = assay: GBM8 neurosphere viability (Alamar Blue); assay type: cell-based, human; conditions: grown as neurospheres, inhibitor given alone
Procedure: as §1, with “For studies with inhibitor compounds, 10 mM stocks were serially diluted in dimethyl sulfoxide and further diluted into culture media to give appropriate concentrations while minimizing precipitation associated with serial dilutions in medium alone. Inhibitors were added to cells and left in the media for 72 hours.” left out
as §2, with “In this assay, cells were treated with inhibitor compounds as described and Alamar Blue added after 72 hours.” left out

GBM4 neurospheres = assay: GBM4 neurosphere formation, light microscopy; assay type: cell-based, human; conditions: 0.1 uM and 5 uM, 72 h
[2] = GBM4 cells, escalating doses (18 h in FIG. 17)

Row | SMILES | IC50, U87 viability (U87 human GBM cells) | IC50, primary astrocyte viability [1] | P21 levels (p21; FIG. 6, relative to vehicle control) | levels of OMG (OMG; FIG. 7, relative to vehicle control) | suppression of GBM4 cells (GBM4 cells) | suppression of GBM8 cells (GBM8 cells) | suppression of U87 cells (U87 human GBM cells; compared with GBM4/8 cells) | IC50 of NHA relative to GBM4 cells ([1]; NHA vs GBM4) | inhibition of neurosphere formation in GBM4 cells (active / inactive compound) (GBM4 neurospheres) | expression of p21 (p21; [2]) | expression of OMG (OMG; [2])
1 | CCN1CCCC(Nc2cc(C)nc(NC(=N)Nc3ccc(Cl)c(Cl)c3)n2)C1 (stereo not shown) [SKOG-101] | high | high | rose markedly | went down markedly | – | – | – | – | – | – | –
2 | CCN1CCCC(Nc2cc(C)nc(NC(=N)Nc3ccc(Cl)c(Cl)c3)n2)C1 (stereo not shown) [SKOG-102] | high | high | – | – | markedly suppressed; also recorded: active | markedly suppressed; also recorded: active | a higher dose was needed | ~20 fold | active | increased in a dose-dependent manner | suppressed; also recorded: decline

From patent US20170182049A1, “NOVEL THERAPEUTICS FOR BRAIN CANCER” (The Regents of the University of California, priority 2012, published 2017)
